Data: ChEMBL document CHEMBL5291721, “A preclinical secondary pharmacology resource illuminates target-adverse drug reaction associations of marketed drugs” (Nat Commun, 2023)

Assays:
[1] = biological target: T1, Muscarinic acetylcholine receptor M1 (Homo sapiens, UniProt P11229)
T1 sequence (P11229 whole entry): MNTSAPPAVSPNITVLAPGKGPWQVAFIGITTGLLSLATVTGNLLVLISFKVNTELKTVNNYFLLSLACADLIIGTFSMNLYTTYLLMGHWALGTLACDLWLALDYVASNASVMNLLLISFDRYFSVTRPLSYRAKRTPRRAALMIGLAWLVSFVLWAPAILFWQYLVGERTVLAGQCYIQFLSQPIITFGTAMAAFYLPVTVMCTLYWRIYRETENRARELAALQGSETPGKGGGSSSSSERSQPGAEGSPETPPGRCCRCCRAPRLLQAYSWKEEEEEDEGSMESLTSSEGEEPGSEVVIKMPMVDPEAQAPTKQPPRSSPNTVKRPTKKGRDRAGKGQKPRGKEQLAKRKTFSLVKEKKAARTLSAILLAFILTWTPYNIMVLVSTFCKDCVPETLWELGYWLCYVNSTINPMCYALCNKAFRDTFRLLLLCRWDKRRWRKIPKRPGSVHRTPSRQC

[2] = biological target: T2, Retinoic acid receptor alpha (Homo sapiens, UniProt P10276); type: functional, cell-based
T2 sequence (P10276 whole entry): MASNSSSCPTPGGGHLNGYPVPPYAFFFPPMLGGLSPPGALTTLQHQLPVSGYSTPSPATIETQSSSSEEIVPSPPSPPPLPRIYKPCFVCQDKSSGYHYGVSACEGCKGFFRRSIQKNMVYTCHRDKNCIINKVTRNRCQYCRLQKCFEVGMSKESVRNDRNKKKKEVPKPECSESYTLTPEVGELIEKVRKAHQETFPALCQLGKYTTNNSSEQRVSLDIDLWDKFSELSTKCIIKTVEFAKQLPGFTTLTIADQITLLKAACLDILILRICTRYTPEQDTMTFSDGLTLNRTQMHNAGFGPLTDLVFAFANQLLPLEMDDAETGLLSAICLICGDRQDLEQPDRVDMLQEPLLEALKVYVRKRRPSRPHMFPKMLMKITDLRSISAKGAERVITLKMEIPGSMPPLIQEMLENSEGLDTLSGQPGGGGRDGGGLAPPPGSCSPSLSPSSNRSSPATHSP

[3] = biological target: T3, Nuclear receptor subfamily 1 group I member 3 (Homo sapiens, UniProt Q14994); type: functional
T3 sequence (Q14994 whole entry): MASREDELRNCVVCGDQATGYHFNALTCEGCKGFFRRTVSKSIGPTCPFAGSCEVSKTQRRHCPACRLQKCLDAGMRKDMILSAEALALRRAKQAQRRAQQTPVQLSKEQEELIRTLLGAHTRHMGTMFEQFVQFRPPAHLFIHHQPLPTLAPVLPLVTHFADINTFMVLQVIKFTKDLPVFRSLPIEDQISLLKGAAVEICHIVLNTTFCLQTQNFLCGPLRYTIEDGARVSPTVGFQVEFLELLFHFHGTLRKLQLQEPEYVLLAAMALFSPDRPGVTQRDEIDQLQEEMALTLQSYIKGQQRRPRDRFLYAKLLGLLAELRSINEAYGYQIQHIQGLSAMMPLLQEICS

[4] = biological target: T4, Retinoic acid receptor beta (Homo sapiens, UniProt P10826); type: functional, cell-based
T4 sequence (P10826 whole entry): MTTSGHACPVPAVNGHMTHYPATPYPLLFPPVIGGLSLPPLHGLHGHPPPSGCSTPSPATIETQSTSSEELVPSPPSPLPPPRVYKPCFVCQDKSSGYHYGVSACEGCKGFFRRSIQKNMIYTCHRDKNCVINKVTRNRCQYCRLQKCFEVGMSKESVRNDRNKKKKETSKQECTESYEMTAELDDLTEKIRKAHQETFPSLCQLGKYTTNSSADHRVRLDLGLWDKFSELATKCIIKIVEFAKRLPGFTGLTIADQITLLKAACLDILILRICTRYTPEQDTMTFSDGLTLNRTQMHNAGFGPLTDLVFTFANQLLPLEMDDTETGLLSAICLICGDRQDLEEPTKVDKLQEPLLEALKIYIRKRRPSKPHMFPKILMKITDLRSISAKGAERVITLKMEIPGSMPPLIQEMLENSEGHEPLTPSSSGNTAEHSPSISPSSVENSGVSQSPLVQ

[5] = biological target: T5, Oxysterols receptor LXR-beta (Homo sapiens, UniProt P55055); type: functional
T5 sequence (P55055 whole entry): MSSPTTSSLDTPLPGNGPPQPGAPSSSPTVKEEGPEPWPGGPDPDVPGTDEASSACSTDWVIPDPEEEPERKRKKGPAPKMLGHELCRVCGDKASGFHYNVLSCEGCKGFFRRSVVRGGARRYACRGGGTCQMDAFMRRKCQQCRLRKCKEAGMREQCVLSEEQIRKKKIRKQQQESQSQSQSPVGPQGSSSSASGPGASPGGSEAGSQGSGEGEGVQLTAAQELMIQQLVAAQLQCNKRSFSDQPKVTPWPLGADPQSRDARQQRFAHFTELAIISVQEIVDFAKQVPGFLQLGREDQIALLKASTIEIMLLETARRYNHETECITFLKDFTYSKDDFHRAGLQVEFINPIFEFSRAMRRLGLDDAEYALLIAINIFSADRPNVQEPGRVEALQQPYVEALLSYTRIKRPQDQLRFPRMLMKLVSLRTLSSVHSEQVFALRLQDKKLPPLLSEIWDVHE

[6] = biological target: T6, Muscarinic acetylcholine receptor M4 (Homo sapiens, UniProt P08173)
T6 sequence (P08173 whole entry): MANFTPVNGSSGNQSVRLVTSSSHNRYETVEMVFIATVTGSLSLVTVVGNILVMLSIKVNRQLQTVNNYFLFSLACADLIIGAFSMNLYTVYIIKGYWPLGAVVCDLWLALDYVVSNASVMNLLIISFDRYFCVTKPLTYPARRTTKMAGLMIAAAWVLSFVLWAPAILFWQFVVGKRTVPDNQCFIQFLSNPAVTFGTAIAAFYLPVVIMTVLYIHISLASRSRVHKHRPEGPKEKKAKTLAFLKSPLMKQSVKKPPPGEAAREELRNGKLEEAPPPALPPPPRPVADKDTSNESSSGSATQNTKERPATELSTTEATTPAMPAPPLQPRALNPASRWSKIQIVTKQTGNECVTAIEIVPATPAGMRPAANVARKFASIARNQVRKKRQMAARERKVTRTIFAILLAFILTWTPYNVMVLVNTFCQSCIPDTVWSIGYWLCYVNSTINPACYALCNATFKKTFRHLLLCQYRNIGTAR

[7] = biological target: Rod cGMP-specific 3',5'-cyclic phosphodiesterase subunit alpha (Homo sapiens, UniProt P16499); type: functional
Rod cGMP-specific 3',5'-cyclic phosphodiesterase subunit alpha, sequence (P16499 whole entry): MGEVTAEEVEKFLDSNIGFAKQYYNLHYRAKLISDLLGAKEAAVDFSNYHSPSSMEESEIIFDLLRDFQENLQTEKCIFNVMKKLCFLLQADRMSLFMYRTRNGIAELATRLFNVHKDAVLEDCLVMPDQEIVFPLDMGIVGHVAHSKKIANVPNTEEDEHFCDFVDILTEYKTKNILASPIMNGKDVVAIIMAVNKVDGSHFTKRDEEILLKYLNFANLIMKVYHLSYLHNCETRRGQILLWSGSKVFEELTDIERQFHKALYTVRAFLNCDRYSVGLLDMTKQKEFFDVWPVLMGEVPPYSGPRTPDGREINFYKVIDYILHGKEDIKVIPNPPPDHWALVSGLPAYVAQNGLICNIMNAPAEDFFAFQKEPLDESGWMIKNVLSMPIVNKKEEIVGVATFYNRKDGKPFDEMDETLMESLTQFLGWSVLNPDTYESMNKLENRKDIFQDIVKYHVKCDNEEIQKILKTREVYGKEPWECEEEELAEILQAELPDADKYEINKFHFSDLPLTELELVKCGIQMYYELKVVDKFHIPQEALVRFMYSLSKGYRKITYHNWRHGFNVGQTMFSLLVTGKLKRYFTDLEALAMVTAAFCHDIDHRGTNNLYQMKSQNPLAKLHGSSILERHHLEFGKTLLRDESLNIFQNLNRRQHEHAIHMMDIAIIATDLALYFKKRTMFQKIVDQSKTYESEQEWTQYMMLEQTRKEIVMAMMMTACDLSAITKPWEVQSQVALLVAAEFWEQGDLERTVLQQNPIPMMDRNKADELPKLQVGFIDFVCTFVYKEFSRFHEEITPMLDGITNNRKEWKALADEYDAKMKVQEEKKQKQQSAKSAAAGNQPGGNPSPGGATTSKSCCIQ

[8] = biological target: 5-hydroxytryptamine receptor 2A (Homo sapiens, UniProt P28223)
5-hydroxytryptamine receptor 2A, sequence (P28223 whole entry): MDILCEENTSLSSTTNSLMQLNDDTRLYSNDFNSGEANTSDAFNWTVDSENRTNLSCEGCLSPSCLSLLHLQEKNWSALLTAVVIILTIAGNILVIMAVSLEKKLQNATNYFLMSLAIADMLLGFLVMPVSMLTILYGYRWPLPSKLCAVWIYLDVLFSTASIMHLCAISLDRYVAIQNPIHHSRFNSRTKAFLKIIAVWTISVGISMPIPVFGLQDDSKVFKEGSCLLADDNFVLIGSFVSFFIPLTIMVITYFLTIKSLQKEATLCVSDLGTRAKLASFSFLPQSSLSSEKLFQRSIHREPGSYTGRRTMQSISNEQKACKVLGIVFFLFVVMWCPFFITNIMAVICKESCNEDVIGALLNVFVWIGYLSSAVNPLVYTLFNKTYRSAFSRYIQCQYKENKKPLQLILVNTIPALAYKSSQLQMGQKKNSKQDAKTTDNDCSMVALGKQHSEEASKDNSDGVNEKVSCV

[9] = biological target: Hydroxycarboxylic acid receptor 2 (Homo sapiens, UniProt Q8TDS4)
Hydroxycarboxylic acid receptor 2, sequence (Q8TDS4 whole entry): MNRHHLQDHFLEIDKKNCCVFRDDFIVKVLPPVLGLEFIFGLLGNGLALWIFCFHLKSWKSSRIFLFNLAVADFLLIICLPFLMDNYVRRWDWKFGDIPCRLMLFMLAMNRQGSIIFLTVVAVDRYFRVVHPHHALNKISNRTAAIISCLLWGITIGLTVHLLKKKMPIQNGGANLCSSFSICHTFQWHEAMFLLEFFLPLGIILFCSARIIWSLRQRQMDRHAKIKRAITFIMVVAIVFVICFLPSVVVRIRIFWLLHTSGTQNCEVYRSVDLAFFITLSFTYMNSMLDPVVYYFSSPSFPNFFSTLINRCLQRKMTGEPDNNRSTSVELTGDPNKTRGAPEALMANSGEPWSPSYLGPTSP

[10] = biological target: 5-hydroxytryptamine receptor 2B (Homo sapiens, UniProt P41595)
5-hydroxytryptamine receptor 2B, sequence (P41595 whole entry): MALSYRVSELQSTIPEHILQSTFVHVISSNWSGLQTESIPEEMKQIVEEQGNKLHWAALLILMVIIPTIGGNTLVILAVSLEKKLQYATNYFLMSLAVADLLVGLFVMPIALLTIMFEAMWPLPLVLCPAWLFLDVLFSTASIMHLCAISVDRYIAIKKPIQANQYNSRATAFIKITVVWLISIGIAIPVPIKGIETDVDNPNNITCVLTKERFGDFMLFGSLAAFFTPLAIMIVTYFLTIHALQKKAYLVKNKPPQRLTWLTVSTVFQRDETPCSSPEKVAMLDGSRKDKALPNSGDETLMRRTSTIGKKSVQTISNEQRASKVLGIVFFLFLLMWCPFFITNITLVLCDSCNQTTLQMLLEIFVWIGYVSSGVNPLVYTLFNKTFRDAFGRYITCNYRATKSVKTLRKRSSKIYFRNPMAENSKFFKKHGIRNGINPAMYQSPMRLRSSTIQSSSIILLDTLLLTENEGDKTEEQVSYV
Note: assay procedure not described here.

O=C(Nc1cccc2c(=O)cc(-c3nnn[nH]3)oc12)c1ccc(OCCCCc2ccccc2)cc1
AC50 [1]: 28 µM

CC(/C=C1\SC(=S)N(CC(=O)O)C1=O)=C\c1ccccc1
AC50 [2]: > 30 µM
AC50 [3]: 3.6 µM
AC50 [4]: > 30 µM
AC50 [5]: > 30 µM

CC1(C)S[C@@H]2[C@H](NC(=O)[C@H](N)c3ccc(O)cc3)C(=O)N2[C@H]1C(=O)O [AMOXICILLIN]
AC50 [2]: > 30 µM
AC50 [6]: > 10 µM
AC50 [7]: > 10 µM
AC50 [3]: 15 µM
AC50 [4]: > 30 µM
AC50 [5]: 4.1 µM

O=C1CN2Cc3c(ccc(Cl)c3Cl)N=C2N1 [ANAGRELIDE]
AC50 [8]: > 10 µM

Clc1cccc(Cl)c1N=C1NCCN1 [CLONIDINE]
AC50 [9]: > 10 µM

COC(=O)[C@H](c1ccccc1Cl)N1CCc2sccc2C1 [CLOPIDOGREL]
AC50 [6]: > 10 µM
AC50 [7]: > 10 µM

CN1C[C@H](C(=O)N[C@]2(C)O[C@@]3(O)[C@@H]4CCCN4C(=O)[C@H](Cc4ccccc4)N3C2=O)C[C@@H]2c3cccc4[nH]cc(c34)C[C@H]21 [DIHYDROERGOTAMINE]
AC50 [10]: 0.0444 µM

CCC(=O)O[C@@H](O[P@](=O)(CCCCc1ccccc1)CC(=O)N1C[C@H](C2CCCCC2)C[C@H]1C(=O)O)C(C)C [FOSINOPRIL]
AC50 [1]: > 30 µM

Cc1cnc(NC(=O)C2=C(O)c3ccccc3S(=O)(=O)N2C)s1 [MELOXICAM]
AC50 [6]: > 10 µM
AC50 [7]: > 10 µM

CC[C@@H](CO)NC(=O)[C@@H]1C=C2c3cccc4[nH]cc(c34)C[C@H]2N(C)C1 [METHYLERGONOVINE]
AC50 [10]: 0.0054 µM

CN(C)c1cc(CNCC(C)(C)C)c(O)c2c1C[C@H]1C[C@H]3[C@H](N(C)C)C(O)=C(C(N)=O)C(=O)[C@@]3(O)C(O)=C1C2=O [OMADACYCLINE]
AC50 [6]: > 30 µM
AC50 [1]: > 30 µM

COc1ccnc(C[S+]([O-])c2nc3ccc(OC(F)F)cc3[nH]2)c1OC (stereo unspecified) [PANTOPRAZOLE]
AC50 [9]: > 10 µM

CNC[C@H](O)c1cccc(O)c1 [PHENYLEPHRINE]
AC50 [8]: > 10 µM

CC(C)C[C@H](CN)CC(=O)O [PREGABALIN]
AC50 [8]: > 10 µM

CNC(=O)c1cc(Oc2ccc(NC(=O)Nc3ccc(Cl)c(C(F)(F)F)c3)c(F)c2)ccn1 [REGORAFENIB]
AC50 [2]: > 30 µM
AC50 [3]: 24 µM
AC50 [1]: 2.37 µM
AC50 [4]: > 30 µM
AC50 [5]: > 30 µM

CCOc1cc(CC(=O)N[C@@H](CC(C)C)c2ccccc2N2CCCCC2)ccc1C(=O)O [REPAGLINIDE]
AC50 [2]: > 30 µM
AC50 [3]: 5 µM
AC50 [4]: > 30 µM
AC50 [5]: > 30 µM

CCCN(CCC)CCc1cccc2c1CC(=O)N2 [ROPINIROLE]
AC50 [8]: > 10 µM
AC50 [10]: 13.4 µM

CC(=O)S[C@@H]1CC2=CC(=O)CC[C@]2(C)[C@H]2CC[C@@]3(C)[C@@H](CC[C@@]34CCC(=O)O4)[C@H]12 [SPIRONOLACTONE]
AC50 [9]: > 10 µM

CCCCNc1ccc(C(=O)OCCN(C)C)cc1 [TETRACAINE]
AC50 [6]: > 10 µM
AC50 [7]: > 10 µM

CN1CCN(CCCN2c3ccccc3Sc3ccc(S(=O)(=O)N(C)C)cc32)CC1 [THIOPROPERAZINE]
AC50 [1]: 3.24 µM

CC1(C)O[C@@H]2[C@@H](CO[C@@]3(COS(N)(=O)=O)OC(C)(C)O[C@@H]23)O1 [TOPIRAMATE]
AC50 [8]: > 10 µM
